Assays:
RBC AChE = conditions: adult rats, single exposure; ref EPA [2016]; cited from earlier work
brain AChE = assay: In vivo brain AChE inhibition in rats, single exposure (JMPR); conditions: rat
Description: To evaluate the performance of the PBK modeling-facilitated reverse dosimetry approach to predict in vivo AChE inhibition, the predicted dose–response curve for rat AChE inhibition upon exposure to profenofos was compared with available in vivo data on AChE inhibition in rats (JMPR [2007]). Furthermore, the predicted dose–response data were used for BMD modeling, using EFSA PROAST version 69.0 (https://shiny-efsa.openanalytics.eu/app/bmd) using the model averaging approach to allow evaluation of the prediction by comparison of BMDL10 values obtained from the predicted dose–response data to points of departure derived by regulatory bodies (EPA [2016]; JMPR [2007], EFSA [2019]). To that end, the obtained BMDL10 values were compared with a reported BMDL10 value from a rat study on profenofos-induced RBC AChE inhibition, which was recently used to obtain an ARfD by the US EPA (EPA [2016]), and a reported NOAEL value on profenofos-induced rat brain acetylcholinesterase inhibition, which has been used to obtain an ARfD by JMPR ([2007]).

AChE = assay: PBK modeling-facilitated reverse dosimetry and BMD modelling of predicted AChE inhibition in humans; parameters: species or system human
Description: In the present study, it was assumed that in vivo dose-dependent AChE inhibition (in blood) depends on the maximum concentration (Cmax) of profenofos reached in the blood. For adequate PBK modeling-facilitated reverse dosimetry, the active (unbound) concentration of a test chemical in the in vitro test system should be linked to the in vivo freely available chemical at the target site. This is important since it is assumed that it is the fraction unbound that causes the effect (AChE inhibition). In the in vitro incubations, a very low concentration of BSA (0.1 mg/mL) is present. Heilmair et al. ([2008]) reported that with such low BSA concentrations, the free concentration of chlorpyrifos oxon is not affected. Furthermore, Rosenfeld and Sultatos ([2006]) found no evidence of binding of paraoxon by BSA even at a higher concentration (1 mg/ml) during incubations. Based on these observations, no significant effect on the free fraction of profenofos in the in vitro AChE inhibition studies is expected, which corroborated with estimations on profenofos binding in the in vitro incubations with help of the online simcyp tool (https://www.certara.com/software/pbpk-modeling-and-simulation/).
By calculating with the PBK model, the external dose required to reach (as unbound Cmax) the concentrations applied in the in vitro test, each in vitro concentration was translated into an in vivo dose. […]

in vitro = in vitro ADME, human; conditions: for Vmax / Km: conversion of profenofos to BCP; for Km: pH 7.4
Procedure: Incubations of profenofos with rat and human liver microsomes, liver cytosol and plasma were performed to quantify in vitro rates of BCP formation. Conditions were optimized to be linear for metabolite formation with regard to incubation time and microsomal, cytosolic and plasma protein concentration (data not shown). The final incubations were carried out in 100 mM Tris HCl (pH 7.4, 37 °C) containing (final concentrations) 5 mM MgCl2, 2 mM CaCl2 [to stimulate PON1 activity (Carr et al. [2015])], 2 mM NADPH (cofactor to also include CYP-mediated metabolism), enzyme preparation (final concentration 2 mg/ml for human liver microsomes and cytosol and 4.4 mg/ml for human plasma; 0.5 mg/ml for rat microsomes and cytosol and 1.65 mg/ml for rat plasma) and profenofos (at final concentrations ranging from 1 to 100 μM, added from 100 times concentrated stock solutions in DMSO). Control incubations were performed in the absence of microsomes, cytosol or plasma. After 2 min pre-incubation, the reaction was initiated by adding the substrate and mixtures were incubated for 2 min in a 37 °C water bath. The total volume of the incubation mixtures was 200 μl. The reaction was terminated by the addition of 50 μl ice cold ACN and samples were kept on ice. The mixture was centrifuged at 14,000g for 20 min at 4 °C and the supernatant was analyzed using UPLC-UV.
All samples from incubations were analyzed using a Waters Acquity UPLC H class system that consisted of a quaternary solvent manager, a sample manager, and a photodiode array (PDA) detector, equipped with a Water Acquity UPLC® BEH C18 column (1.7 μm, 2.1 × 50 mm) and Waters Xbridge UPLC® BEH C18 pre-column (2.5 μM, 2.1 × 5 mm). The temperature of the column was kept at 40 °C and the auto sampler at 10 °C during the UPLC analysis. The mobile phases used for the analysis consisted of (A) 0.1% TFA in nanopure water and (B) 100% ACN. A gradient elution at a flow rate of 0.6 ml/min was applied for the analysis with the initial condition of 100% A:0% B (v/v), changing in a linear way to 0% A:100% B from 0 to 6 min, which was maintained for 30 s, and then changed back to the initial conditions in 30 s, which were maintained for 1 min. The injection volume for each sample was 3.5 μl.
Under these conditions, the retention times of profenofos and BCP were 4.76 and 3.37 min, respectively. The amounts of profenofos and BCP were quantified by integrating the peak areas at 237 nm using calibration curves that were prepared using commercially available standards.
Kinetic parameters including the apparent maximum velocity (Vmax) and the apparent Michaelis–Menten constant (Km) for BCP formation were obtained by fitting the data for the substrate concentration-dependent rate of conversion (expressed in nmol/min/mg protein) using GraphPad Prism 5, version 5.04 (San Diego, California, USA) to the standard Michaelis–Menten equation: V=Vmax∗S/(Km+S) in which the S represents the concentration of substrate, expressed in μM, V and Vmax the velocity and the maximum velocity of the reaction, respectively, expressed in nmol/min/mg protein, and Km the apparent Michaelis–Menten constant, expressed in μM. The kinetic parameter values for conversion of profenofos to BCP in the liver microsomes, liver cytosol and plasma were determined. To determine the catalytic efficiency, Vmax was divided by the Km.

## CCCSP(=O)(OCC)Oc1ccc(Br)cc1Cl (stereo not drawn) [profenofos, O-(4-bromo-2-chlorophenyl) O-ethyl S-propyl phosphorothioate]
RBC AChE
  BMDL10 for RBC AChE inhibition: 1.99 mg/kg bw
Brain AChE
  JMPR NOAEL relative to US EPA BMDL10: 50 fold
AChE
  Interspecies difference in predicted BMDL10 (rat vs human): 45 fold
In vitro; human liver cytosol
  Vmax: 1.1 nmol/min/mg cytosolic protein
  Km: 1.4 µM
In vitro; human liver microsomes
  Vmax: 1.2 nmol/min/mg microsomal protein
  Km: 6.9 µM
In vitro; human plasma
  Vmax: 0.99 nmol/min/mg plasma protein
  Km: 158 µM
In vitro; human vs rat liver cytosol
  Catalytic efficiency, fold lower for human than rat liver cytosol: 3.8 fold
  Km, fold higher for human than rat liver cytosol: 4.1 fold
  Vmax, fold higher for human than rat liver cytosol: 1.1 fold
In vitro; human vs rat liver microsomes
  Catalytic efficiency, fold lower in human than rat liver microsomes: 6.5 fold
  Km, fold lower in human than rat liver microsomes: 1.2 fold
  Vmax, fold lower in human than rat liver microsomes: 7.7 fold
In vitro; human vs rat plasma
  Catalytic efficiency, fold lower for human than rat plasma: 32 fold
  Km, fold higher for human than rat plasma: 44 fold
  Vmax, fold higher for human than rat plasma: 1.5 fold

— publication PMC8032624, “Prediction of dose-dependent in vivo acetylcholinesterase inhibition by profenofos in rats and humans using physiologically based kinetic (PBK) modeling-facilitated reverse dosimetry” (Archives of Toxicology, 2021)
